From ChEMBL document CHEMBL1136611, “Design, synthesis, and evaluation of beta-galactosylceramide mimics promoting beta-glucocerebrosidase activity in keratinocytes” (2003)

Experiments:
Mus musculus [1] = species: Mus musculus; assay: […] effect on UVB-induced murine epidermal barrier disruption to control water loss in mice in experiment 1; format: functional
Mus musculus [2] = species: Mus musculus; assay: […] effect on UVB-induced murine epidermal barrier disruption to control water loss in mice in experiment 2; format: functional
[3] = target: T1, Lysosomal acid glucosylceramidase (Homo sapiens) (UniProt P04062); assay: In vitro beta--Glucocerebrosidase (beta-GlcCer'ase) activity in cultured human keratinocytes; format: cell-based; design: reference not given here
T1 sequence (whole entry): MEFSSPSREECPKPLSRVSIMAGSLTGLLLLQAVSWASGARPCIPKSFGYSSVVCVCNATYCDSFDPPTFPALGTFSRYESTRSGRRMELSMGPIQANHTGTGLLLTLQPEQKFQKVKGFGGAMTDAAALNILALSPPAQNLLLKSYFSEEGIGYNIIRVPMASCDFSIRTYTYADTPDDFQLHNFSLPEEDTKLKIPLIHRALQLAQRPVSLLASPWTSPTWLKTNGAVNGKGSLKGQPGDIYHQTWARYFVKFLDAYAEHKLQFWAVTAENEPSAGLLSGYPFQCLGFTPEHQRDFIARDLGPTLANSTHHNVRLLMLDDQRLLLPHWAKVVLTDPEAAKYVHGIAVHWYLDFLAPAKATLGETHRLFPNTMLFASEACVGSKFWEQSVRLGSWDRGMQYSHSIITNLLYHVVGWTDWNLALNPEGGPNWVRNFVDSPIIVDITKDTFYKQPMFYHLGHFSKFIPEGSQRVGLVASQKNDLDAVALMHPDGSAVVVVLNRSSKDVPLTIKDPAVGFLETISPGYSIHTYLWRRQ

SMILES | Activity [3] | TEWL (Mus musculus [1]) | TEWL (Mus musculus [2])
CCCCCCCCCCCCCCCCCC(=O)N[C@@H](CO[C@@H]1O[C@@H](CO)C(O)[C@H](O)[C@@H]1O)C(=O)NCCCCCC (single isomer, unassigned) | 1.42 | 2.01 | 2.19
CCCCCCCCCCCCCCCCCC(=O)N[C@@H](CO[C@@H]1O[C@@H](CO)C(O)[C@H](O)[C@@H]1O)C(=O)NCCCCCCCCCCCCCC (single isomer, unassigned) | 1.24 | – | –
CCCCCCCCCCCCCCNC(=O)[C@H](CO[C@@H]1O[C@@H](CO)C(O)[C@H](O)[C@@H]1O)NC(=O)CCCCCCC (single isomer, unassigned) | 0.87 | – | –

Now from value to compound, other results behind:

Activity [3] | SMILES | TEWL (Mus musculus [1]) | TEWL (Mus musculus [2])
1.37 | CCCCCCCCCCCCCCCC(=O)N[C@@H](CO[C@@H]1O[C@@H](CO)C(O)[C@H](O)[C@@H]1O)C(=O)NCCCCCCCCCCCCCC (single isomer, unassigned) | – | –
1.2 | CCCCCCCCCCCCCCCCCC(=O)N[C@@H](CO[C@@H]1O[C@@H](CO)C(O)[C@H](O)[C@@H]1O)C(=O)NCCCCCCCCCC (single isomer, unassigned) | – | –
